Measured values reported in article PMC10805311, “Pseudomonas aeruginosa two-component system CprRS regulates HigBA expression and bacterial cytotoxicity in response to LL-37 stress” (PLOS Pathogens, 2024).
Values after ≈ are worked out from the molar mass of the structure shown. Read-outs that look alike come from different tables or passages of the source. Residues, ends and D or L forms follow the SMILES beside them. No end group written: not given here.

How the values were obtained:
[1] = test system: WT P. aeruginosa; experiment: microbe, parasite or virus in culture; assay type: cell-based; conditions: 37°C; for MIC: without LL-37, LB medium, OD600 = 0.1, 24 h; for MIC (+ LL-37): antibiotic + LL-37 (LL-37 pretreatment), LB medium, 24 h
Experimental: (§1) The initial concentrations of meropenem, cephalosporin, tetracycline, gentamicin, ciprofloxacin, polymyxin B, and colistin are: 0.1 mg/mL, 0.02 mg/mL, 0.5 mg/mL, 0.16 mg/mL, 1 mg/mL, 0.1 mg/mL, and 0.1 mg/mL, all the antibiotics were 10 × gradient dilution with sterile PBS buffer. Overnight bacterial cultures of WT P. aeruginosa and mutants were re-inoculated into fresh LB medium supplemented at OD600 = 0.1, then 90 μL cultures and 10 μL antibiotic dilutions were added in a 96-well microtiter dish for 24 h at 37°C.

[2] = biological target: CprS periplasmic sensor domain CprSSD (residues 28-163) (Pseudomonas aeruginosa); experiment: MST; 100 nM His-tagged CprS labelled with Monolith His-Tag Labelling Kit RED-tris-NTA 2nd Generation; cationic peptides in 16 doubling dilutions from 500 uM (0.5 mM) in PBST; incubated at 25 C for 30 min; Monolith NT.115; repeated three times
[3] = biological target: full-length CprS (CprSFL), sensor histidine kinase of the two-component system CprRS (Pseudomonas aeruginosa); experiment: as above
[4] = test system: P. aeruginosa PAO1 strain H103; conditions: cited from earlier work
Excerpt: TCSs represent the most common signal-transduction cascades in bacteria, sensing external cues such as ions, peptides, and compounds [46, 47]. Canonical TCSs comprise a transmembrane sensor histidine kinase (HK) and an intracellular response regulator (RR). Upon binding to specific stimuli, the HK undergoes autophosphorylation and transfers the phosphoryl group to the RR, activating its transcription regulation ability to influence bacterial behavior. To date, over 60 TCSs have been identified in the P. aeruginosa PAO1 genome, they have been recognized as crucial players in various b ...

[5] = test system: full-length CprS (CprSFL); experiment: Microscale thermophoresis (MST), full-length CprS; assay type: binding, P. aeruginosa; conditions: 100 nM CprS, cationic peptides from 500 μM, 25°C 30 min
Experimental: The E. coli BL21 (DE3) strains harboring pET22b-cprS and pET22b-cprR were cultured at 37°C in LB medium and suppled with 0.4 mM IPTG as the OD600 reached to 0.8. The cultures were incubated at 16°C for an additional 14 h and the cells were collected and resuspended in buffer A (20 mM tris-HCl (pH 8.0), 150 mM NaCl). The cells were lysed by ultrasound and centrifuged at 15, 000 rpm for 20 min at 4°C. Then the supernatant was applied to Ni-agarose resins and eluted with buffer containing 300 mM imidazole. As for full-length CprS, the supernatant needed to be extracted by 2% ELUGENT Detergent and flow 0.02% DDM for elution. The target proteins were further purified via AKTA purifier using buffer A and concentrated to 12 mg/mL.
The 100 nM CprS with His-tag was labeled with Monolith His-Tag Labelling Kit RED-tris-NTA 2nd Generation Kit and the cationic peptides used in this work were diluted with PBST buffer gradient from 0.5 mM [34]. The proteins and cationic peptide dilutions were mixed and incubated at 25°C for 30 min and detected on a Monolith NT.115 instrument. The data were analyzed by NanoTemper Analysis 1.2.20 software.

[6] = test system: cprS; experiment: qRT-PCR, cprS transcription; assay type: cell-based, P. aeruginosa; conditions: oprL as normalizer
Experimental: (§2) Overnight bacterial cultures were subcultured in fresh LB medium to OD600 0.8 and the cells were collected by using Trizol. The cDNA was synthesized by using PrimeScript RT reagent Kit. 2 × SYBR qPCR Master Mix was used to perform qPCR assays. The reaction step was 2 × SYBR qPCR Master Mix (Without ROX) 10 μL, upstream Primer (10 μM) 0.4 μL, downstream Primer (10 μM) 0.4 μL, template cDNA 1 μg and ddH2O up to 20 μL. The qPCR procedure was set as: stage 1 (95°C 30 s, repeat once), stage 2 (95°C 10 s, 60°C 30 s, repeat for 40 times) and stage 3 (95°C 15 s, 60°C 1 min, 95°C 15 s, repeat 1 time). The oprL gene was used as a normalizer. The same method was used for mammalian cells, and 18 sRNA served as a normalizer.

[7] = test system: cprR; experiment: qRT-PCR, cprR transcription; assay type: cell-based, P. aeruginosa; conditions: oprL as normalizer
Experimental: as §2

[8] = test system: P. aeruginosa ΔcprS; assay type: cell-based; conditions: 37°C; for MIC (+ LL-37): antibiotic + LL-37 (LL-37 pretreatment), LB medium, 24 h; for MIC: without LL-37, LB medium, OD600 = 0.1, 24 h
Experimental: as §1

[9] = test system: P. aeruginosa ΔcprR; assay type: cell-based; conditions: 37°C; for MIC (+ LL-37): antibiotic + LL-37 (LL-37 pretreatment), LB medium, 24 h; for MIC: without LL-37, LB medium, OD600 = 0.1, 24 h
Experimental: as §1

[10] = test system: CarSR system; conditions: Vibrio cholerae; cited from earlier work
Excerpt: In the field of microbiology and immunology, the interaction between host antimicrobial peptides and pathogenic bacteria has been a subject of extensive research. The success of bacterial infections depends on a delicate balance of signals exchanged between microbes and hosts. Cationic antimicrobial peptides, including defensins such as α-defensins, β-defensins, and cathelicidin LL-37, are crucial components of innate host defense against bacterial infections. Numerous studies have shown that LL-37 acts as a shield between the host and the external environment, preventing bact ...

[11] = Pseudomonas aeruginosa, read-out: MIC

For `C[C@@H](O)[C@H]1C(=O)N2C(C(=O)O)=C(S[C@@H]3CN[C@H](C(=O)N(C)C)C3)[C@H](C)[C@H]12` [MEM, Meropenem], which MIC [1, 11] is on record?
Its MIC is 10 µg/mL (≈ 26.1 µM).

For `CN(C)[C@@H]1C(O)=C(C(N)=O)C(=O)[C@@]2(O)C(O)=C3C(=O)c4c(O)cccc4[C@@](C)(O)[C@H]3C[C@@H]12` [TE, Tetracycline], which MIC [1, 11] is on record?
Its MIC is 3.2 µg/mL (≈ 7.2 µM).

For human host defense peptide LL-37, which Kd [2] is on record?
The Kd was 5.34 µM.

What about the Kd [3] of the same molecule?
The Kd was 1.41 µM.

For `O=C(O)c1cn(C2CC2)c2cc(N3CCNCC3)c(F)cc2c1=O` [CIP, ciprofloxacin], which MIC [1, 11] is on record?
The MIC was 2 µg/mL (≈ 6.04 µM).

With “indolicidin: cationic peptide antibiotic (ILPWKWPWWPWRR; ends and bridges not checked; UniProt P33046 131-143, looked up)” as the molecule, how does the CprRS-mediated adaptive resistance [4] read?
The CprRS-mediated adaptive resistance was “adaptive resistance”.

Which MIC [1, 11] does the source give for `CNC(C)C1CCC(N)C(OC2C(N)CC(N)C(OC3OCC(C)(O)C(NC)C3O)C2O)O1` (stereo not shown) [GM, Gentamicin] here?
Its MIC is 12.5 µg/mL (≈ 26.2 µM).

Which “binding to CprS” value [5] does the source give for `CC[C@H](C)CCCCC(=O)N[C@@H](CCN)C(=O)N[C@H](C(=O)N[C@@H](CCN)C(=O)N[C@H]1CCNC(=O)[C@H]([C@@H](C)O)NC(=O)[C@H](CCN)NC(=O)[C@H](CCN)NC(=O)[C@H](CC(C)C)NC(=O)[C@@H](Cc2ccccc2)NC(=O)[C@H](CCN)NC1=O)[C@@H](C)O` [Polymyxin B] (HELM PEPTIDE1{[CC[C@H](C)CCCCC(=O)[*:2]].[Dab].T.[Dab].[Dab].[Dab].[dF].L.[Dab].[Dab].T}$PEPTIDE1,PEPTIDE1,5:R3-11:R2$$$V2.0; N-terminus assumed; bridges inferred) here?
The value was “no binding was observed”.

What about the CprRS-mediated adaptive resistance [4] of the same molecule?
Its CprRS-mediated adaptive resistance is “adaptive resistance”.

And the “expression of cprS under Polymyxin B treatment” value [6]?
Its value is “no significant change in expression was observed”.

What about the “MIC (+ LL-37)” value [1] of the same molecule?
Its value is 64 µg/mL.

What about the MIC [1] of the same molecule?
The MIC was 4 µg/mL (≈ 3.32 µM).

What about the “expression of cprR under Polymyxin B treatment” value [7] of the same molecule?
Its value is “no significant change in expression was observed”.

What about the “MIC (+ LL-37)” value [8] of the same molecule?
Its value is 1 µg/mL.

And the MIC [8]?
Its MIC is 2 µg/mL (≈ 1.66 µM).

And the “MIC (+ LL-37)” value [9]?
The value was 1 µg/mL.

What about the MIC [9] of the same molecule?
Its MIC is 2 µg/mL (≈ 1.66 µM).

For `CC[C@H](C)CCCCC(=O)N[C@@H](CCN)C(=O)N[C@H](C(=O)N[C@@H](CCN)C(=O)N[C@H]1CCNC(=O)[C@H]([C@@H](C)O)NC(=O)[C@H](CCN)NC(=O)[C@H](CCN)NC(=O)[C@H](CC(C)C)NC(=O)[C@@H](CC(C)C)NC(=O)[C@H](CCN)NC1=O)[C@@H](C)O` [colistin, Colistin] (HELM PEPTIDE1{[CC[C@H](C)CCCCC(=O)[*:2]].[Dab].T.[Dab].[Dab].[Dab].[dL].L.[Dab].[Dab].T}$PEPTIDE1,PEPTIDE1,5:R3-11:R2$$$V2.0; N-terminus assumed; bridges inferred), which “binding to CprS” value [5] is on record?
The value was “no binding was observed”.

What about the “MIC (+ LL-37)” value [1] of the same molecule?
Its value is 64 µg/mL.

And the MIC [1]?
Its MIC is 4 µg/mL (≈ 3.42 µM).

What about the “MIC (+ LL-37)” value [8] of the same molecule?
Its value is 0.5 µg/mL.

What about the MIC [8] of the same molecule?
The MIC was 1 µg/mL (≈ 0.855 µM).

What about the “MIC (+ LL-37)” value [9] of the same molecule?
The value was 1 µg/mL.

And the MIC [9]?
Its MIC is 1 µg/mL (≈ 0.855 µM).

B1: α-defensin 5: human enteric α-defensin 5 (peptide, UniProt Q01523 20-94, looked up)
Defensin alpha 5: ESLQERADEATTQKQSGEDNQDLAISFAGNGLSALRTSGSQARATCYCRTGRCATRESLSGVCEISGRLYRLCCR
modifications: Defensin-5
For B1, which “sensing by CarSR” value [10] is on record?
Its value is “sense human enteric α-defensin 5 and LL-37 to promote bacterial pathogenicity”.
